Data taken from patent publication US20220056019A1, “FARNESOID X RECEPTOR AGONISTS AND USES THEREOF” (Metacrine, Inc., priority 2018, published 2022).

Molecular target: T1, hFXR (Homo sapiens, UniProt Q96RI1)
T1 construct: expressed in transfected cells; host or cells: CV-1 cells
T1 sequence (Q96RI1 1-486): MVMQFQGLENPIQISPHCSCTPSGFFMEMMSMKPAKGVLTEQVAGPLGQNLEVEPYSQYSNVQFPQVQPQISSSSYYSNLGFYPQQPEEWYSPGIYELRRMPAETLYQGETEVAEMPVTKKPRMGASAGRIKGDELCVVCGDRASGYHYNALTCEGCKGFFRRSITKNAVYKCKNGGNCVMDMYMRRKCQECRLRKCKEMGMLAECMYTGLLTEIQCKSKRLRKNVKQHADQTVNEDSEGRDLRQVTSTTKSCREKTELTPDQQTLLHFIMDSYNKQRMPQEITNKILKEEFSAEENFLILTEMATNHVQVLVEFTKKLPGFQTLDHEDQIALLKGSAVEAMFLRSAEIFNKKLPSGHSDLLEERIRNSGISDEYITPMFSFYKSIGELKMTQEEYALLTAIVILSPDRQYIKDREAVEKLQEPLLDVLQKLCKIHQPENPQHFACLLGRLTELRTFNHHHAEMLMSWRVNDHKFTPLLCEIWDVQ
T1 sequence (P19793 1-462 partner): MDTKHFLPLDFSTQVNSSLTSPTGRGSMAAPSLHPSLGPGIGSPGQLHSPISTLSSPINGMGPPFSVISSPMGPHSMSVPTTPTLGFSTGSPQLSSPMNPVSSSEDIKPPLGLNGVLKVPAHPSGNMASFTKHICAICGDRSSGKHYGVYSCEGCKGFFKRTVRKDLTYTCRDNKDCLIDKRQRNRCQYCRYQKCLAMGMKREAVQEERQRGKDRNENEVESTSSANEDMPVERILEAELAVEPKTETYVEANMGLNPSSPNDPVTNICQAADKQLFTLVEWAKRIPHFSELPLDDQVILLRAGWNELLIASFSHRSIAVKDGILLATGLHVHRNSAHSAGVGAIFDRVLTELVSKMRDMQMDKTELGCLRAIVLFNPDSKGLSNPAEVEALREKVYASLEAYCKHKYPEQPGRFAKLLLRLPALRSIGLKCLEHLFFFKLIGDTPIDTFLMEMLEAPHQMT
Assay: In Vitro FXR Assay (TK): TK-ECRE-luc reporter in transfected CV-1 cells
Assay type: cell-based
Settings: 18 hrs incubation, luminescence
Summary of the method: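 CV-1 cells transiently cotransfected with hFXR, hRXR, TK-ECRE-luc reporter and pCMX-YFP plasmids in charcoal-stripped serum medium. Serially diluted compounds added for 18 h at 37° C., then cells lysed and luciferase luminescence measured.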

Row | Compound | EC50
1 | COc1ccc([C@H]2CC[C@H](CN(c3cc(-c4cnc(C5CC5)s4)ccn3)C(=O)[C@H]3CC[C@H](OC(=O)N4CCN(C)CC4)CC3)CC2)cc1C [Compound 2.27, trans-4-((4-(2-Cyclopropylthiazol-5-yl)pyridin-2-yl)(((trans)-4-(4-methoxy-3-methylphenyl)cyclohexyl)methyl)carbamoyl)cyclohexyl 4-methylpiperazine-1-carboxylate] | ≤ 0.05 µM
2 | COc1ccc(C23CCC(CN(c4cc(-c5cnn(C(C)C)c5)ccn4)C(=O)[C@H]4CC[C@H](OC(=O)N(C)CCO)CC4)(CC2)CC3)cc1C [Compound 4.51, 4-((4-(1-Isopropyl-1H-pyrazol-4-yl)pyridin-2-yl) ((4-(4-methoxy-3-methylphenyl)bicyclo [2.2.2]octan-1-yl)methyl)carbamoyl)cyclohexyl (2-hydroxyethyl)(methyl) trans-carbamate] | ≤ 0.05 µM
3 | COc1ccc([C@H]2CC[C@H](CN(c3cc(-c4cnc(C(C)C)o4)ccn3)C(=O)[C@H]3CC[C@H](OC(=O)N4CC(O)C4)CC3)CC2)cc1C [Compound 2.37, trans-4-((4-(2-Isopropyloxazol-5-yl)pyridin-2-yl)((trans-4-(4-methoxy-3-methylphenyl)cyclohexyl)methyl)carbamoyl)cyclohexyl 3-hydroxyazetidine-1-carboxylate] | ≤ 0.05 µM
4 | COc1ccc(C23CCC(CN(c4cc(-c5ccn(C(C)C)n5)ccn4)C(=O)[C@H]4CC[C@H](OC(=O)N5CC(O)C5)CC4)(CC2)CC3)cc1C [Compound 23.16, 4-((4-(1-Isopropyl-1H-pyrazol-3-yl)pyridin-2-yl)((4-(4-methoxy-3-methylphenyl)bicyclo[2.2.2]octan-1-yl)methyl)carbamoyl)cyclo-hexyl trans-3-hydroxyazetidine-1-carboxylate] | ≤ 0.05 µM
5 | COc1ccc(C23CCC(CN(c4cc(-c5cnn(C(C)C)c5)ccn4)C(=O)[C@H]4CC[C@H](OC(=O)N5CCC5)CC4)(CC2)CC3)cc1C [Compound 4.52, 4-((4-(1-Isopropyl-1H-pyrazol-4-yl)pyridin-2-yl) ((4-(4-methoxy-3-methylphenyl)bicyclo [2.2.2]octan-1-yl)methyl)carbamoyl)cyclohexyl trans-azetidine-1-carboxylate] | ≤ 0.05 µM
6 | COc1ccc(C23CCC(CN(c4ccnc(-c5cnn(C(C)C)c5)c4)C(=O)[C@H]4CC[C@H](OC(=O)N5CC(O)C5)CC4)(CC2)CC3)cc1C [Compound 4.59, 4-((2-(1-Isopropyl-1H-pyrazol-4-yl)pyridin-4-yl) ((4-(4-methoxy-3-methylphenyl)bicyclo [2.2.2]octan-1-yl)methyl)carbamoyl)(trans-cyclohexyl) 3-hydroxyazetidine-1-carboxylate] | ≤ 0.05 µM
7 | COc1ccc([C@H]2CC[C@H](CN(c3cc(-c4coc(C(C)C)n4)ccn3)C(=O)[C@H]3CC[C@H](OC(=O)N4CC(O)C4)CC3)CC2)cc1C [Compound 2.24, trans-4-((4-(2-Isopropyloxazol-4-yl)pyridin-2-yl)(((trans)-4-(4-methoxy-3-methylphenyl)cyclohexyl)methyl)carbamoyl) cyclohexyl 3-hydroxyazetidine-1-carboxylate] | ≤ 0.05 µM
8 | COCC(=O)N[C@H]1CC[C@H](C(=O)N(CC23CCC(c4ccc(OC)c(C)c4)(CC2)CC3)c2cc(-c3cnc(C4CC4)s3)ccn2)CC1 [Compound 9.07, (trans)-N-(4-(2-Cyclopropylthiazol-5-yl)pyridin-2-yl)-N-((4-(4-methoxy-3-methylphenyl)bicyclo[2.2.2]octan-1-yl)methyl)-4-(2-methoxyacetamido)cyclohexanecar-boxamide] | ≤ 0.05 µM
9 | COc1ccc(C23CCC(CN(c4cc(-c5cnc(C(C)C)s5)ccn4)C(=O)[C@H]4CC[C@H](OC(=O)NCCO)CC4)(CC2)CC3)cc1C [Compound 4.36, 4-((4-(2-Isopropylthiazol-5-yl)pyridin-2-yl)((4-(4-methoxy-3-methylphenyl)bicyclo[2.2.2]octan-1-yl)methyl)carbamoyl) cyclohexyl(2-hydroxyethyl)trans-carbamate] | ≤ 0.05 µM
10 | COc1ccc(C23CCC(CN(c4cc(-c5cnn(C6(C)CCC6)c5)ccn4)C(=O)[C@H]4CC[C@H](OC(=O)NCCCO)CC4)(CC2)CC3)cc1C [Compound 25.17, 4-(((4-(4-Methoxy-3-methylphenyl)bicyclo[2.2.2]octan-1-yl)methyl)(4-(1-(1-methylcyclobutyl)-1H-pyrazol-4-yl)pyridin-2-yl)carbamoyl)(trans-cyclohexyl)(3-hydroxypropyl)carbamate] | ≤ 0.05 µM
11 | COc1ccc([C@H]2CC[C@H](CN(c3cc(-c4ccc(N(C)C)nc4)ccn3)C(=O)[C@H]3CC[C@H](OC(=O)N4CC(O)C4)CC3)CC2)cc1C [Compound 3, trans-4-((6-(Dimethylamino)-[3,4′-bipyridine]-2′-yl)((trans-4-(4-methoxy-3-methylphenyl)cyclohexyl)methyl)carbamoyl)cyclohexyl 3-hydroxyazetidine-1-carboxylate] | ≤ 0.05 µM
12 | COc1ccc(C23CCC(CN(c4cc(-c5coc(C6CC6)n5)ccn4)C(=O)[C@H]4CC[C@H](OC(=O)N5CC(O)C5)CC4)(CC2)CC3)cc1C [Compound 4.02, 4-((4-(2-Cyclopropyloxazol-4-yl)pyridin-2-yl)((4-(4-methoxy-3-methylphenyl)bicyclo[2.2.2]octan-1-yl)methyl)carbamoyl) cyclohexyl 3-hydroxyazetidine-trans-1-carboxylate] | ≤ 0.05 µM
13 | COc1ccc([C@H]2CC[C@H](CN(c3cc(-c4cnn(C(C)C)c4)ccn3)C(=O)[C@H]3CC[C@H](OC(=O)NCC(C)(C)O)CC3)CC2)cc1Cl [Compound 2.05, (trans)-4-((((trans)-4-(3-Chloro-4-methoxyphenyl)cyclohexyl)methyl)(4-(1-isopropyl-1H-pyrazol-4-yl)pyridin-2-yl)carbamoyl)cyclohexyl (2-hydroxy-2-methylpropyl)carbamate] | ≤ 0.05 µM
14 | COc1ccc([C@H]2CC[C@H](CN(c3cccc(-c4cnn(C5CC5)c4)c3)C(=O)[C@H]3CC[C@H](C(C)O)CC3)CC2)cc1C (stereo partly drawn) [Compound 21, trans-N-(3-(1-Cyclopropyl-1H-pyrazol-4-yl)phenyl)-4-(1-hydroxyethyl)-N-((trans-4-(4-methoxy-3-methylphenyl)cyclohexyl)methyl)cyclohexanecarboxamide] | ≤ 0.05 µM
15 | COc1ccc(C23CCC(CN(c4cc(-c5cnn(C(C)C)c5)ccn4)C(=O)[C@H]4CC[C@H](OC(=O)N5CC(CO)C5)CC4)(CC2)CC3)cc1C [Compound 4.09, 4-((4-(1-Isopropyl-1H-pyrazol-4-yl)pyridin-2-yl)((4-(4-methoxy-3-methylphenyl)bicyclo [2.2.2]octan-1-yl)methyl)carbamoyl)cyclohexyl 3-(hydroxymethyl) azetidine-trans-1-carboxylate] | ≤ 0.05 µM
16 | COc1ccc(C23CCC(CN(c4cc(-c5coc(C(C)C)n5)ccn4)C(=O)[C@H]4CC[C@H](OC(=O)N5CC(O)C5)CC4)(CC2)CC3)cc1C [Compound 4.23, 4-((4-(2-Isopropyloxazol-4-yl)pyridin-2-yl)((4-(4-methoxy-3-methylphenyl)bicyclo[2.2.2]octan-1-yl)methyl)carbamoyl) cyclohexyl 3-hydroxyazetidine-trans-1-carboxylate] | ≤ 0.05 µM
